The target of assay [1] is T1, Muscarinic acetylcholine receptor M2 (Homo sapiens, UniProt P08172).
T1 sequence (P08172 whole entry): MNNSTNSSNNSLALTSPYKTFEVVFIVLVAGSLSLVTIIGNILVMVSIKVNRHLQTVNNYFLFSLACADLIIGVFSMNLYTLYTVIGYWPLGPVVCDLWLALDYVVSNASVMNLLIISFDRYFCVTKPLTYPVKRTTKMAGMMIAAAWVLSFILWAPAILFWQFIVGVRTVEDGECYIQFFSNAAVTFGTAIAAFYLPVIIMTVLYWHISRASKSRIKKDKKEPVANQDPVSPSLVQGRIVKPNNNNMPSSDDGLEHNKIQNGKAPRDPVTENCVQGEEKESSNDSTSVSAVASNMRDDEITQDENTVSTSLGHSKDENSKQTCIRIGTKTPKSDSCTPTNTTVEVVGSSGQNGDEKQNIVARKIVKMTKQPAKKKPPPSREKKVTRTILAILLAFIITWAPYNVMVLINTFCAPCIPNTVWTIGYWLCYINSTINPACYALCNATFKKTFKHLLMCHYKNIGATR

Assay [2] concerns the target T2, 5-hydroxytryptamine receptor 1A (Homo sapiens, UniProt P08908).
T2 sequence (P08908 whole entry): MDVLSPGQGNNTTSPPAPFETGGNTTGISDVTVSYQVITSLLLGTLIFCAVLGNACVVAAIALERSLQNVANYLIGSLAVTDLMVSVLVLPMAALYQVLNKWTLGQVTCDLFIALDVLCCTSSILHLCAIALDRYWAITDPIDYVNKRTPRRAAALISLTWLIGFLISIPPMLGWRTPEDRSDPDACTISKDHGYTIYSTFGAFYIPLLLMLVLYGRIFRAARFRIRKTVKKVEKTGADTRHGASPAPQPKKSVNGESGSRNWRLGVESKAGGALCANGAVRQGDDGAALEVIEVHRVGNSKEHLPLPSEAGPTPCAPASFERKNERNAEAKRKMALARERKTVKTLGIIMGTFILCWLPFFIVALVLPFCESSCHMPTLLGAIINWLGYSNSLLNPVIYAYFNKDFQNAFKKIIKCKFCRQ

Another assay has as its target D(1A) dopamine receptor (Homo sapiens, UniProt P21728).
For assay [3], the target named is T3, Bile acid receptor (Homo sapiens, UniProt Q96RI1).
T3 sequence (Q96RI1 whole entry): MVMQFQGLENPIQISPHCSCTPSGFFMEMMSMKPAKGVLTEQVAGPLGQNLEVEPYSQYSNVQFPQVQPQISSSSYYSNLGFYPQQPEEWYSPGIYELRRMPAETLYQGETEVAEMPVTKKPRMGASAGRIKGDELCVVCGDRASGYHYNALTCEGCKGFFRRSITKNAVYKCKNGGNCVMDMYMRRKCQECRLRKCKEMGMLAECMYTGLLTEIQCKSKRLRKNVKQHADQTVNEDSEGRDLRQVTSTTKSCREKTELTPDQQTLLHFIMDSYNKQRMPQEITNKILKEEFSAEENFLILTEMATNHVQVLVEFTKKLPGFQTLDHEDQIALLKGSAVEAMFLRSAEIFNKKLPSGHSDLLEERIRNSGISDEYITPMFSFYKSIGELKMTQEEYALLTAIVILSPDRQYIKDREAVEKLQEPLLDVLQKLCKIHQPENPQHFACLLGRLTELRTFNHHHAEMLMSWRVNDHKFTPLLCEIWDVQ
It is filed as functional.

The target in assay [4] is T3, Bile acid receptor. The format is functional. The source holds these as a separate data set.
Assay [5] addresses T4, Oxysterols receptor LXR-beta (Homo sapiens, UniProt P55055).
T4 sequence (P55055 whole entry): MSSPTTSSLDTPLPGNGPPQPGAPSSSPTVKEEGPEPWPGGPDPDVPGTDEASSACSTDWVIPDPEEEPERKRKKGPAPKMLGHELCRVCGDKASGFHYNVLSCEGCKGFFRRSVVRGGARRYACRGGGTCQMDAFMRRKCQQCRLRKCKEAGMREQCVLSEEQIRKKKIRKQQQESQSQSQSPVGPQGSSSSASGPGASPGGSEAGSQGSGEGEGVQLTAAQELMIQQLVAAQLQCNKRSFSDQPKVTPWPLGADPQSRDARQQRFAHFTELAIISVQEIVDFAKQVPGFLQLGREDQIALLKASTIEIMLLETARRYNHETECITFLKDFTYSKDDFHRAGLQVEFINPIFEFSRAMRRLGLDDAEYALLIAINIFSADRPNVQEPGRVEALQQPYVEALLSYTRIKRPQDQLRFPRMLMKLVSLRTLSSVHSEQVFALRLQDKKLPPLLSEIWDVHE
It is filed as functional.

Assay [6] has as its target T3, Bile acid receptor. It is filed as functional. This is another data set of the same source.
Assay [7] has as its target T3, Bile acid receptor. It is filed as functional. The source holds these as a separate data set.
Assay [8] has as its target T4, Oxysterols receptor LXR-beta. It is filed as functional. The source holds these as a separate data set.
Assay [9] deals with 5-hydroxytryptamine receptor 2B (Homo sapiens, UniProt P41595).
Assay [10] addresses 5-hydroxytryptamine receptor 2A (Homo sapiens, UniProt P28223).
Also: assay procedure not described here.

Sequence of D(1A) dopamine receptor (P21728 whole entry): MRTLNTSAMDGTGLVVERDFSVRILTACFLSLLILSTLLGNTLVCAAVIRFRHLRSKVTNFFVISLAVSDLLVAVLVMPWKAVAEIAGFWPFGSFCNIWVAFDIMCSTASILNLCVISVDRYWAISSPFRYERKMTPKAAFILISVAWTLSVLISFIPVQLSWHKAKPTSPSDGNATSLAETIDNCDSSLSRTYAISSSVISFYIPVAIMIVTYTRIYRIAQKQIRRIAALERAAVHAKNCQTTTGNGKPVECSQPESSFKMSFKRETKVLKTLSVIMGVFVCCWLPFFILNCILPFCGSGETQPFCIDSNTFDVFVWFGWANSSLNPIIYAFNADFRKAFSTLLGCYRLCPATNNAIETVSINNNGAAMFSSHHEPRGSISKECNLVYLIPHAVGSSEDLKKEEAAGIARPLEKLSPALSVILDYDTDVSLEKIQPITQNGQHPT
Sequence of 5-hydroxytryptamine receptor 2B (P41595 whole entry): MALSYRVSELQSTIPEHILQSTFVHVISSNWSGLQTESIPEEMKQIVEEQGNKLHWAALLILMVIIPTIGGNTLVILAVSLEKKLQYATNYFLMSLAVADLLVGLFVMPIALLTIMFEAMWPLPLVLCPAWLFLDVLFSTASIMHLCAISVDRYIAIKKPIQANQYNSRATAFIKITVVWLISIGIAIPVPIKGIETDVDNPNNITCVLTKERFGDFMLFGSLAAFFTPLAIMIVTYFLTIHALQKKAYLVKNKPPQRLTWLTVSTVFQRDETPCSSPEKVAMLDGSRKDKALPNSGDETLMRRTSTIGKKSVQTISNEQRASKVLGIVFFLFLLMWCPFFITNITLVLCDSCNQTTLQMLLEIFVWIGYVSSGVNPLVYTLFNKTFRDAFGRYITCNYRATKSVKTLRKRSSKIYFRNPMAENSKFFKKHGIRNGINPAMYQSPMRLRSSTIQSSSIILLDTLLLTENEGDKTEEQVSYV
Sequence of 5-hydroxytryptamine receptor 2A (P28223 whole entry): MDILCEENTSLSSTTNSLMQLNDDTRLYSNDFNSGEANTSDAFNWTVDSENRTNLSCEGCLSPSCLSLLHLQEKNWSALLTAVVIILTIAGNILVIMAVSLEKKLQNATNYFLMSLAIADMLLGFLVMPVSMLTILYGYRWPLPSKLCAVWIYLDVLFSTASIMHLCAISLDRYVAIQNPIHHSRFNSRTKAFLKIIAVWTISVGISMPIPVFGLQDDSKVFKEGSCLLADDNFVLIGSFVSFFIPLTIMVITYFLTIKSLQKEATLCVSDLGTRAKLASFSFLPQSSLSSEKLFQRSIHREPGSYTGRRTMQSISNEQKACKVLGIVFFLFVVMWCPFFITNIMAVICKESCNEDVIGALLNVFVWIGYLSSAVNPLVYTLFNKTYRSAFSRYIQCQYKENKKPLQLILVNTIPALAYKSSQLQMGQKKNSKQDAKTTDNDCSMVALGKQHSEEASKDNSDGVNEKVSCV

The term AC50 denotes the midpoint of the concentration-response curve, whichever way the signal moves. Turning to `COc1cc2nccc(Oc3ccc(NC(=O)C4(C(=O)Nc5ccc(F)cc5)CC4)cc3)c2cc1OC` [CABOZANTINIB], the AC50 (in [1]; in assay [2]; at D(1A) dopamine receptor) was over 30 µM in each case.

Consider `CC(C(=O)O)c1ccc2c(c1)[nH]c1ccc(Cl)cc12` (configuration not stated) [CARPROFEN], for which the AC50 is over 10 µM on Bile acid receptor [3]; over 30 µM at Bile acid receptor [4]; over 30 µM in assay [5]; over 30 µM at Bile acid receptor [6]; over 30 µM on Bile acid receptor [7]; over 30 µM in [8].

For the molecule `C=C[C@H]1C[N@@]2CC[C@H]1C[C@@H]2[C@@H](O)c1ccnc2ccc(OC)cc12` [QUINIDINE], the AC50 in assay [9] was 0.976 µM.

Regarding `CN(C)CCc1c[nH]c2ccc(Cn3cncn3)cc12` [RIZATRIPTAN], in assay [10], the AC50 is over 10 µM.

`CCN(CC)CCNC(=O)c1c(C)[nH]c(/C=C2\C(=O)Nc3ccc(F)cc32)c1C` [SUNITINIB]: the AC50 in [8] is over 30 µM.

The values are drawn from ChEMBL document CHEMBL5291721, “A preclinical secondary pharmacology resource illuminates target-adverse drug reaction associations of marketed drugs” (Nat Commun, 2023).
